Assays:
[1] = system: human α2β3γ2 GABAARs; experiment: In vitro electrophysiological recording assay (automated patch-clamp), α2-GABAAR relative efficacy; format: cell-based; details: % efficacy normalised to diazepam; GABA EC10-20; concentration generally >= 100 times Ki
Method in brief: (§1)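 Automated whole-cell patch clamp at 20-22° C on L(tk^−) cells (QPatch, −65 mV) or HEK293 cells (SyncroPatch, −80 mV) stably expressing the human receptor. Compound pre-applied ≥1 min, then co-applied with GABA EC10-20; % potentiation of leak-corrected peak current, normalised to diazepam, typically at ≥100× Ki.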

[2] = target: human α3β3γ2 GABAARs (benzodiazepine site) (Homo sapiens (Human), UniProt P18507+P34903); experiment: In vitro radioligand binding assay ([3H]Ro15-1788 displacement), α3-GABAAR Ki; details: L(tk-) cell membranes, 4 nM [3H]Ro15-1788
Method in brief: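 Membranes from dexamethasone-induced mouse L(tk−) cells stably expressing the human receptor were incubated 1 h at 4° C with 4 nM [3H]Ro15-1788 and graded compound; nonspecific binding with 1-3 μM TP003. Filter-bound radioactivity counted; Ki from IC50 by Cheng-Prusoff using the measured radioligand Kd.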

[3] = system: human α3β3γ2 GABAARs; experiment: In vitro electrophysiological recording assay (automated patch-clamp), α3-GABAAR relative efficacy; format: cell-based; details: % efficacy normalised to diazepam; GABA EC10-20; concentration generally >= 100 times Ki
Method in brief: as §1

| SMILES | α2-GABAAR Relative Efficacy (vs. Diazepam) [1] | Ki [2] [nM] | α3-GABAAR Relative Efficacy (vs. Diazepam) [3] |
| --- | --- | --- | --- |
| CCCNC(=O)c1c(N)c2cccc(-c3cnccc3OC)c2[nH]c1=O [Example 17, 4-Amino-8-(4-methoxy-3-pyridyl)-2-oxo-N-propyl-1H-quinoline-3-carboxamide] | 0.33 | 8.74 | 0.42 |
| CCCNC(=O)c1c(N)c2cccc(-c3cnc(C)cc3OC)c2[nH]c1=O [Example 18, 4-Amino-8-(4-methoxy-6-methyl-3-pyridyl)-2-oxo-N-propyl-1H-quinoline-3-carboxamide] | 0.29 | 27.9 | 0.21 |
| CCCNC(=O)c1c(N)c2cccc(-c3nc(C)ncc3F)c2[nH]c1=O [Example 40, 4-Amino-8-(5-fluoro-2-methyl-pyrimidin-4-yl)-2-oxo-N-propyl-1H-quinoline-3-carboxamide] | 0.29 | 5.06 | 0.31 |

Source: patent publication US20250197368A1 (priority 2020, published 2025)
